# Values of other authors as cited in US20240197617A1, “ANTI-AGING COSMETIC COMPOSITION BASED ON RESVERATROL AND MAGNOLIA” (Tomcat International Limited, priority 2021, published 2024).
# Test system: TET enzymes
# Settings: study carried out on a mouse
smiles,measurement,value
C=CCc1ccc(O)c(-c2ccc(O)c(CC=C)c2)c1 [honokiol],Effect on activity of TET enzymes,stimulated the activity of TET enzymes
